Assays:
mGluR5 receptors = molecular target: T1, mGluR5 receptors (Rattus norvegicus, UniProt P31424); experiment: Cytosolic Calcium studies with astrocytes (astrocyte culture test, FLIPR); assay type: cell-based; conditions: primary rat cortical astrocytes, 14-15 DIV; 10 minutes pre-incubation, L-quisqualate 100 nM; read-out: mGluR5_FLIPRr_rpA IC50
T1 construct: Primary astrocyte cultures are prepared from cortices of newborn rats; endogenous in cells; host or cells: primary cortical astrocytes from Sprague-Dawley rat pups (2-4 d old), 14-15 DIV
T1 sequence (P31424 21-1203): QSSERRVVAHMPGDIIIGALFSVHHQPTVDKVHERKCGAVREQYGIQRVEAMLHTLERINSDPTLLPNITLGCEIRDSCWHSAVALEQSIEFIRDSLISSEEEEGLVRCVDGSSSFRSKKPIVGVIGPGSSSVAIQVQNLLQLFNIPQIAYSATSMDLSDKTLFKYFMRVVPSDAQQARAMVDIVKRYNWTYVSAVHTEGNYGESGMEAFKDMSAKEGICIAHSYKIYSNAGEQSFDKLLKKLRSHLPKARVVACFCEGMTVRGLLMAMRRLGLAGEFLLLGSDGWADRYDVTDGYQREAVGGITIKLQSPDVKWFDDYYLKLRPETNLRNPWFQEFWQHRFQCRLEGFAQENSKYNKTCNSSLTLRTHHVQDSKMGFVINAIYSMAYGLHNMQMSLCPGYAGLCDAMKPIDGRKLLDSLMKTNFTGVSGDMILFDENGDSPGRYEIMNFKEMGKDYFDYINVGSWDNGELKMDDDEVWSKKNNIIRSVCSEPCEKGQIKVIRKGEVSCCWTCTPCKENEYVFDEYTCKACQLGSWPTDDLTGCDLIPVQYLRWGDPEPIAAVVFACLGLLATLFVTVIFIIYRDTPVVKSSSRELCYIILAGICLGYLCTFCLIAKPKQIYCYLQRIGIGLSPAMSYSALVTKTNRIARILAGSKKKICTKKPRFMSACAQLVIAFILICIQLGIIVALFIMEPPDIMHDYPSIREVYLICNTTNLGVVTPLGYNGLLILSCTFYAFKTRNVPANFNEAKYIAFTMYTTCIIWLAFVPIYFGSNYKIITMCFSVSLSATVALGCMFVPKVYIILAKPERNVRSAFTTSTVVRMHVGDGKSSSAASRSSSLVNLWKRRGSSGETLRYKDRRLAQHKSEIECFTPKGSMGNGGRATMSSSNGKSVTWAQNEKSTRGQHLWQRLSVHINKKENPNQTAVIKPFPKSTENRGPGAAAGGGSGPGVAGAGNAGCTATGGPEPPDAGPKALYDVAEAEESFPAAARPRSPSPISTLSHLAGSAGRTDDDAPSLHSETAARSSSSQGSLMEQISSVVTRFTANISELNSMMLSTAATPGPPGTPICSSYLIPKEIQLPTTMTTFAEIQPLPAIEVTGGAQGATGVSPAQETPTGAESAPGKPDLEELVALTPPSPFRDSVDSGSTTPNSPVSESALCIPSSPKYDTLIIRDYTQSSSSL
Experimental: Primary astrocyte cultures are prepared from cortices of newborn rats as described by Booher and Sensenbrenner (1972, Neurobiology 2(3):97-105). Briefly, Sprague-Dawley rat pups (2 - 4 d old) are decapitated and neocortices are dissected, disintegrated with a nylon filter (pore size 80 µm) and carefully triturated. The cell suspension is plated on poly-D-lysine pre-coated flasks (Costar, Netherlands) and cultivated in Dulbecco's Modified Eagle's Medium (DMEM, Invitrogen, Germany) supplemented with 10% foetal calf serum (FCS, Sigma, Germany), 4 mM glutamine and 50 µg/ml gentamycin (both Biochrom, Germany) at 37°C in a humidified atmosphere of 5% CO2 / 95% air for 7 d with exchanging the medium at day 2 and 6.
After 7 days in vitro (DIV), cells are shaken overnight at 250 rpm to remove oligodendrocytes and microglia. The next day, astrocytes are rinsed twice with CMF-PBS (calcium- and magnesium-free phosphate buffered saline, Biochrom, Germany), trypsinized and subplated on poly-D-lysine pre-coated 96-well plates (Greiner, Germany) at a density of 40,000 cells/well. 24 h after establishing the secondary culture the astrocytes are rinsed with PBS^++ (phosphate buffered saline, Biochrom, Germany) and fed with astrocyte-defined medium (ADM) consisting of DMEM containing 1x G5-supplement (Invitrogen, Germany), 0.5 µg/ml heparan sulfate, and 1.5 µg/ml fibronectin (both Sigma, Germany) (Miller et al., (1993) Brain Res. 618(1):175-8). 3 d later the medium is exchanged and the cells incubated for another 2-3 d, so that at the time of experiments astrocytes are 14-15 DIV.
Cytosolic Calcium studies with astrocytes:
The increase of cytosolic calcium after stimulation with the mGluR5 agonist L-quisqualate is measured using a fluorometric imaging plate reader (FLIPR) and the Ca-Kit (both Molecular Devices). Prior to addition of agonist or antagonist the medium is aspirated and cells are loaded for 2 h at RT with 150 µl of loading buffer consisting of Ca-sensitive dye reconstituted in sodium chloride (123 mM), potassium chloride (5.4 mM), magnesium chloride (0.8 mM), calcium chloride (1.8 mM), D-glucose (15 mM), and HEPES (20 mM), pH 7.3. Subsequently, plates are transferred to FLIPR to detect calcium increase with the addition of L-quisqualate (100 nM) measured as relative fluorescence units (RFU). If antagonists are tested, these compounds are pre-incubated for 10 minutes at RT before addition of the respective agonist.
(§1) The fluorescence signal increase after addition of agonist reflects the increase of cytosolic calcium. Inconsistencies in the amount of cells per well are normalised by using the spatial uniformity correction of the FLIPR software. The mean of replicated temporal data (n=3-5) is calculated and used for graphical representation. For the evaluation of the pharmacology, the calcium changes in response to different concentrations of agonist or antagonist are determined using a maximum minus minimum (MaxMin) calculation.
(§2) All responses (RFU-values) are determined as percentage of control (= maximum response). EC50 and IC50 are calculated according the logistic equation using GraFit 5.0 (Erithacus Software, GB) or Prism 4.0 (GraphPad Software, USA).

[1] = molecular target: T2, human metabotropic glutamate receptor mGluR5 (Homo sapiens, UniProt P41594); experiment: Cytosolic Calcium studies with stably transfected cells (FLIPR); assay type: cell-based; conditions: CHO-K1 cells with inducible human mGluR5; test compound added 5 minutes before L-quisqualic acid (concentration giving ~80% of the maximal signal); read-out: mGluR5_FLIPR_h_ CHO_NAM IC50
T2 construct: expressed in transfected cells; host or cells: CHO-K1 cells (IPTG-inducible expression)
T2 sequence (P41594 21-1212): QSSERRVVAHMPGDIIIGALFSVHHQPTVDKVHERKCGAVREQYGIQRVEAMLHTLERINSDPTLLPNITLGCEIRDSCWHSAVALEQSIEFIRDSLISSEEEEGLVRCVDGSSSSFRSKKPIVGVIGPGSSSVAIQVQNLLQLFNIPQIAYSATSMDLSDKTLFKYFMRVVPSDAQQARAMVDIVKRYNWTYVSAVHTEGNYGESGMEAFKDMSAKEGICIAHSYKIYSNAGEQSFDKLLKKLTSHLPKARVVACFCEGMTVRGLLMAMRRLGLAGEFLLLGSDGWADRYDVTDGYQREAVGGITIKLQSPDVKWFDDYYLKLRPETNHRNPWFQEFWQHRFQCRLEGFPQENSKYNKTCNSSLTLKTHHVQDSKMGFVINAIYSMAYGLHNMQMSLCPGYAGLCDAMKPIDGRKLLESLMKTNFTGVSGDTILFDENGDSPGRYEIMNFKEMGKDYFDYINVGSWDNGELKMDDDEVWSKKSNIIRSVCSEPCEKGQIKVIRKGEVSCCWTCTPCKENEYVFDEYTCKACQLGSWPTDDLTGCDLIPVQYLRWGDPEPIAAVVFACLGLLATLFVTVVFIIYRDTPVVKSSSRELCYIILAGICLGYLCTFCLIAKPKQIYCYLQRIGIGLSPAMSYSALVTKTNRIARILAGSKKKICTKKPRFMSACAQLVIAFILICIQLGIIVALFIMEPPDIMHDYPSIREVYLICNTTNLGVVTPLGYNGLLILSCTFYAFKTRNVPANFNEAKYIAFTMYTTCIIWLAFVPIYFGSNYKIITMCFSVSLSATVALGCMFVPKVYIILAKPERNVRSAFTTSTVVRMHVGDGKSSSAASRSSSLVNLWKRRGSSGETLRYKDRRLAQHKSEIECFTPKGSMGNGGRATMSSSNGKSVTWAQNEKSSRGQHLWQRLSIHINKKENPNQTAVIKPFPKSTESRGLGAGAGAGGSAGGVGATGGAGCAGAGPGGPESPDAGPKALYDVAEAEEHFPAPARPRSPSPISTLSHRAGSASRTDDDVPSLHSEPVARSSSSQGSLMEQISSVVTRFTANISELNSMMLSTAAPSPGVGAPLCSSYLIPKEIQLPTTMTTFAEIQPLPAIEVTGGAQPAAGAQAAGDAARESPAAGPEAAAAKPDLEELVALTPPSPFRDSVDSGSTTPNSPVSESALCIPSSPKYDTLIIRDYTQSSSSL
Experimental: Cytosolic Calcium studies with stably transfected cells:
Chinese hamster ovary cells (CHO-K1 cells), stably transfected for inducible expression of a human metabotropic glutamate receptor mGluR5, are seeded into black clear bottom 96 well plates at a density of 35.000 cells per well. The standard growth medium used (Dulbecco's modified Eagle Medium, DMEM plus L-proline) contains the appropriate inducer isopropyl-β-D-thiogalactopyranosid (IPTG) to achieve optimal receptor expression. One day after seeding the growth medium is exchanged for reconstituted Ca-Kit (Molecular Devices, USA) and incubated for one hour. Ca-Kit is reconstituted in an assay buffer containing 20 mM HEPES pH 7.4, glutamic-pyruvate transaminase, pyridoxal phosphate and sodium pyruvate in Hank's balanced salt solution (HBBS). Agonistic compounds to the receptor elicit increases in cytosolic calcium which can be measured as increases in fluorescence signals by use of a fluorescence imaging plate reader (Molecular Devices).
as §1, §2

[2] = molecular target: T3, transmembrane allosteric modulatory sites of mGluR5 receptors (Rattus norvegicus, UniProt P31424); experiment: [3H]-MMPEP binding assay in rat cortical membranes; conditions: radioligand [3H]-MMPEP, 60 minutes at room temperature, read-out: mGluR5_M_ MPEP_r_CTX_ IC50
T3 construct: from tissue; host or cells: rat cerebral cortex membranes (male Sprague-Dawley rats)
T3 sequence (P31424 21-1203): as the sequence (P31424 21-1203) above
Experimental: Preparation of rat cortical membranes:
The resulting pellet is re-suspended in 20 volumes of distilled water and centrifuged for 20 minutes at 8000 x g. […] All centrifugation steps are carried out at 4°C.
Alternatively, assays are performed with [^3H]-MMPEP (2-(3-methoxyphenylethynyl)-6-methylpyridine hydrochloride) as radioligand. […] Incubations are terminated using a Millipore filter system.

CC1c2ccccc2CCN1C(=O)c1cc2ccc(Br)cn2n1 (stereo not shown) [drawing 1017, (6-Bromo-pyrazolo[1,5-a]pyridin-2-yl)-(1-methyl-3,4-dihydro-1H-isoquinolin-2-yl)-methanone]
IC50 (mGluR5 receptors): 151 nM

Cc1ccc2n1CCN(C(=O)c1cc3ccc(Br)cn3n1)C2C (stereo not shown) [drawing 1021, 6-bromo-2-[(1,6-dimethyl-3,4-dihydropyrrolo[1,2-a]pyrazin-2(1 H)-yl)carbonyl]pyrazolo[1,5-a]pyridine]
IC50 (mGluR5 receptors): 148 nM

O=C(c1cc2ccc(Br)cn2n1)N1CCc2ncc(Br)cc2C1 [drawing 1011, (3-Bromo-7,8-dihydro-5H-[1,6]naphthyridin-6-yl)-(6-bromo-pyrazolo[1,5-a]pyridin-2-yl)-methanone]
IC50 [1]: 306 nM

CC1c2ccccc2CCN1C(=O)c1cc2ccc(Cl)cn2n1 (stereo not shown) [drawing 1025, (6-Chloro-pyrazolo[1,5-a]pyridin-2-yl)-(1-methyl-3,4-dihydro-1H-isoquinolin-2-yl)-methanone]
IC50 [2]: 260 nM

CC1c2ccoc2CCN1C(=O)c1cc2ccc(Br)cn2n1 (stereo not shown) [drawing 1022, (6-Bromo-pyrazolo[1,5-a]pyridin-2-yl)-(4-methyl-6,7-dihydro-4H-furo[3,2-c]pyridin-5-yl)-methanone]
IC50 (mGluR5 receptors): 42.5 nM

CC1c2ccoc2CCN1C(=O)c1cc2ccc(Br)cn2n1 (stereo not shown) [drawing 1026, (6-Bromo-pyrazolo[1,5-a]pyridin-2-yl)-(4-methyl-6,7-dihydro-4H-furo[3,2-c]pyridin-5-yl)-methanone]
IC50 [2]: 655 nM

CC1c2ccsc2CCN1C(=O)c1cc2ccc(Br)cn2n1 (stereo not shown) [drawing 1020, (6-Bromo-pyrazolo[1,5-a]pyridin-2-yl)-(4-methyl-6,7-dihydro-4H-thieno[3,2-c]pyridin-5-yl)-methanone]
IC50 (mGluR5 receptors): 51 nM

Cc1ccc2n1CCN(C(=O)c1cc3ccc(Br)cn3n1)C2C (stereo not shown) [drawing 1013, 6-bromo-2-[(1,6-dimethyl-3,4-dihydropyrrolo[1,2-a]pyrazin-2(1H)-yl)carbonyl]pyrazol o[1,5-a]pyridine]
IC50 [1]: 178 nM

CC1c2ccccc2CCN1C(=O)c1cc2ccc(Br)cn2n1 (stereo not shown) [drawing 1009, (6-Bromopyrazolo[1,5-a]pyridin-2-yl)-(1-methyl-3,4-dihydro-1H-isoquinolin-2-yl)-methanone]
IC50 [1]: 218 nM

CN1c2ccccc2CCN1C(=O)c1cc2ccc(Br)cn2n1 [drawing 1015, (6-Bromo-pyrazolo[1,5-a]pyridin-2-yl)-(1-methyl-3,4-dihydro-1H-cinnolin-2-yl)-methanone]
IC50 [1]: 410 nM

C[C@@H]1c2ccccc2CCN1C(=O)c1cc2c(Cl)cc(Cl)cn2n1 [drawing 1016, (4,6-Dichloro-pyrazolo[1,5-a]pyridin-2-yl)-((R)-1-methyl-3,4-dihydro-1H-isoquinolin-2-yl)-methanone]
IC50 [1]: 114 nM

C[C@@H]1c2ccccc2CCN1C(=O)c1cc2c(Cl)cc(Cl)cn2n1 [drawing 1027, (4,6-Dichloro-pyrazolo[1,5-a]pyridin-2-yl)-((R)-1-methyl-3,4-dihydro-1H-isoquinolin-2-yl)-methanone]
IC50 [2]: 43 nM

CC1c2ccccc2CCN1C(=O)c1cc2ccc(Cl)cn2n1 (stereo not shown) [drawing 1018, (6-Chloro-pyrazolo[1,5-a]pyridin-2-yl)-(1-methyl-3,4-dihydro-1H-isoquinolin-2-yl)-methanone]
IC50 (mGluR5 receptors): 45 nM

CN1c2ccccc2CCN1C(=O)c1cc2ccc(Br)cn2n1 [drawing 1023, (6-Bromo-pyrazolo[1,5-a]pyridin-2-yl)-(1-methyl-3,4-dihydro-1H-cinnolin-2-yl)-methanone]
IC50 (mGluR5 receptors): 156 nM

CC1c2ccsc2CCN1C(=O)c1cc2ccc(Br)cn2n1 (stereo not shown) [drawing 1012, (6-Bromo-pyrazolo[1,5-a]pyridin-2-yl)-(4-methyl-6,7-dihydro-4H-thieno[3,2-c]pyridin-5-yl)-methanone]
IC50 [1]: 167 nM

CC1c2ccoc2CCN1C(=O)c1cc2ccc(Br)cn2n1 (stereo not shown) [drawing 1014, (6-Bromo-pyrazolo[1,5-a]pyridin-2-yl)-(4-methyl-6,7-dihydro-4H-furo[3,2-c]pyridin-5-yl)-methanone]
IC50 [1]: 166 nM

CC1c2ccccc2CCN1C(=O)c1cc2ccc(Cl)cn2n1 (stereo not shown) [drawing 1010, (6-Chloro-pyrazolo[1,5-a]pyridin-2-yl)-(1-methyl-3,4-dihydro-1H-isoquinolin-2-yl)-methanone]
IC50 [1]: 102 nM

O=C(c1cc2ccc(Br)cn2n1)N1CCc2ncc(Br)cc2C1 [drawing 1019, (3-Bromo-7,8-dihydro-5H-[1,6]naphthyridin-6-yl)-(6-bromo-pyrazolo[1,5-a]pyridin-2-yl)-methanone]
IC50 (mGluR5 receptors): 108 nM

CC1c2ccccc2CCN1C(=O)c1cc2ccc(Br)cn2n1 (stereo not shown) [drawing 1024, (6-Bromo-pyrazolo[1,5-a]pyridin-2-yl)-(1-methyl-3,4-dihydro-1H-isoquinolin-2-yl)-methanone]
IC50 [2]: 400 nM

Source: patent publication EP2090576A1, “6-halo-pyrazolo[1,5-a]pyridines, a process for their preparation and their use as metabotropic glutamate receptor (mGluR) modulators” (Merz Pharma GmbH & Co. KGaA, priority 2008, dated 2009)
